Measurements published in PubChem BioAssay (NCI).
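In this assay, cells in 96-well plates receive the compound at five concentrations for 48 hours. Endpoints are linearly interpolated between the surrounding concentrations. GI50: concentration for 50% inhibition of growth. TGI: concentration producing complete growth inhibition.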

Assays:
Assay in all cases: NCI anticancer screen, dose series, 48 h
K-562 leukemia = system: K-562 leukemia
OVCAR-3 ovarian = system: OVCAR-3 ovarian
RXF 393 renal = system: RXF 393 renal
DMS 114 small cell lung = system: DMS 114 small cell lung
DLD-1 colon = system: DLD-1 colon
DMS 273 small cell lung = system: DMS 273 small cell lung
HOP-18 NSCLC = system: HOP-18 NSCLC
KM20L2 colon = system: KM20L2 colon
M19-MEL melanoma = system: M19-MEL melanoma
SN12K1 renal = system: SN12K1 renal
SNB-78 CNS = system: SNB-78 CNS

| Compound | TGI (K-562 leukemia) [µM] | TGI (OVCAR-3 ovarian) [µM] | TGI (RXF 393 renal) [µM] | other results |
| --- | --- | --- | --- | --- |
| CCOC(=O)c1ccc(C(=O)/C(C#N)=C2\CCCN2C)[nH]1 | > 100 | > 100 | > 100 |  |
| O=[N+]([O-])c1ccc(S(=O)(=O)N=Ic2ccccc2)cc1 | > 100 | > 100 | > 100 |  |
| CC(=O)OC1O[C@@H](C(C)(C)O)CC[C@@H]1[C@H]1CC[C@@]2(C)C3=C(CC[C@]12C)[C@@]1(C)C[C@@H](OC(=O)CC(C)(O)CC(=O)O)[C@H](OC(C)=O)C(C)(C)C1CC3 (stereo partly specified) | 89.1 | 32.6 |  |  |
| NCCCNCCCCNCCCN | > 21.2 | > 20.1 | 28.3 |  |
| CCOP(=O)(O)C(C)(C)NC | > 100 | > 100 | > 100 |  |
| Cc1ccc(-c2c3c(n(C4OC(CO)C(O)C(O)C4O)c(=S)c2C#N)CC(C)(C)CC3=O)cc1 (stereo unspecified) | > 100 | > 100 | > 100 |  |
| O=c1cc(-c2ccccc2)[nH]c2c(S)cccc12 | > 100 | > 100 | > 100 |  |
| COc1ccc(C(O)c2nccn2C)c(OC)c1 (stereo unspecified) | > 100 | > 100 | > 100 |  |
| COc1ccc(OC)c(C2Cc3cnc4nc(N)nc(N)c4c3C2)c1 (stereo unspecified) | > 100 | 41.6 | 43.2 |  |
| O=[N+]([O-])c1cc2c(c3nonc13)OCCCCO2 | 17.3 | 7.53 | 20 |  |
| C#CCN(CC#C)C(=O)C(=O)c1c[nH]c2ccc(OC)cc12 | 33.9 |  | 29.8 |  |
| CC(C)(C)NC(=O)N1N=C(c2ccccc2)C1c1ccccc1 (stereo unspecified) |  | 50.3 | 36.6 |  |
| Cn1c(N)c2c3c(sc2nc1=O)CCCC3 | > 75 | > 75 | > 75 |  |
| COc1ccc(C(OC(C)=O)C2C(=C(C#N)C#N)c3ccccc3C2=C(C#N)C#N)cc1 (stereo unspecified) | > 100 | 50.6 | > 100 |  |
| Cc1c(CNc2ccc(C(=O)NC(CC(=O)O)C(=O)O)cc2)ccc2nc(N)nc(N)c12 (stereo unspecified) | > 1000 | > 1000 | > 1000 | TGI (DMS 114 small cell lung): > 66.7 µM; GI50 (OVCAR-3 ovarian): 34.6 µM; GI50 (RXF 393 renal): > 1000 µM |
| O=P(O)(Cc1ccccc1)c1ccccc1-c1ccccc1 | > 100 |  | > 100 |  |
| CCO/C=N/NC(=O)CSc1nc2ccc(I)cc2c(=O)n1Cc1ccccc1 | > 100 | > 100 | > 100 |  |
| CSc1nncc2[nH]c(C)nc12 | > 100 | > 100 |  |  |
| COC(=O)c1c(O)ccc2c1c1c(n2Cc2ccc(Cl)cc2Cl)C(=O)c2ccccc2C1 | > 100 | > 100 | 78.8 |  |
| COC(=O)C1C=CN(N(C)C)C2=C1C(=O)c1c(O)cccc1C2=O (stereo unspecified) | 52.1 | 5.82 | 14.1 |  |
| CCOC(=O)c1cc(C2(O)CCN(CC(C)CC)C2=O)c(-c2cc(C)no2)[nH]1 (stereo unspecified) | > 100 | > 100 | > 100 |  |

| Compound | TGI (K-562 leukemia) [µM] | TGI (OVCAR-3 ovarian) [µM] | TGI (RXF 393 renal) [µM] | other results |
| --- | --- | --- | --- | --- |
| CCc1nc2ccc(N=NN(C)C)cc2[nH]1 | > 100 | > 100 | > 100 |  |
| COc1ccc(C(OCC2OC(n3cc(C)c(=O)[nH]c3=O)CC2n2cc(Cn3cc(Br)c(=O)[nH]c3=O)nn2)(c2ccccc2)c2ccccc2)cc1 (stereo unspecified) |  | > 100 | > 100 |  |
| CC(C)(C)C(=O)OC(N)/C=C/c1ccccc1 (stereo unspecified) |  | > 100 | > 100 |  |
| CN1C(=O)C(CC=O)(C(C)(C)C)c2ccccc21 (stereo unspecified) | > 100 | > 100 | > 100 |  |
| C[C@@]12CCC3C1C=C1C(=O)c4cc(O)ccc4C(=O)[C@]1(O2)[C@@]3(C)C=O | 12.5 | 12 | 14.1 |  |
| CC(C)=CCc1c(O)ccc2ccc(=O)oc12 | > 100 | > 100 | > 100 | TGI (DLD-1 colon): > 100 µM; TGI (DMS 114 small cell lung): 93.6 µM; TGI (DMS 273 small cell lung): > 100 µM; TGI (HOP-18 NSCLC): > 100 µM; TGI (KM20L2 colon): > 100 µM; TGI (M19-MEL melanoma): > 100 µM; TGI (SN12K1 renal): > 100 µM; TGI (SNB-78 CNS): > 100 µM |
| CC1(C)OC2C(O)CN3CCS[C@H]3C2O1 (stereo partly specified) | > 100 | > 100 | > 100 |  |
| CC(=O)Nc1ccc(-c2nc3cc(Cl)ccc3o2)cc1 | > 50 | > 50 | > 50 |  |
| N#C/C(N)=C(\C#N)NC=NCc1ccccc1 | > 100 | > 100 |  |  |
| CCCCCC(/C=C/C1CCC(=O)C1CC#C[Si](C)(C)C)OCc1ccccc1 (stereo unspecified) | 41.8 | 39.1 | 30.1 |  |
| Cc1cc(C)nc(NS(=O)(=O)c2ccc(NNC(=O)c3cccc4c(=O)c5ccccc5[nH]c34)cc2)n1 | > 100 | > 100 | > 100 |  |
| COc1cc(C2SCC(=O)N2c2ccc(Cl)c(Cl)c2)cc(OC)c1OC (stereo unspecified) | > 100 | > 100 | 43.5 |  |
| Cc1c(O)c(C)c2c(C)cn(C(=O)C(C)(C)C)c2c1C | 98.2 | > 100 | 41.6 |  |
| CC(=O)Nc1ccc2cc(C)c(=O)[nH]c2n1 | > 100 |  | > 100 |  |
| CC(CCC#N)(CCC#N)C(=O)CC(O)(C(F)(F)F)C(F)(F)F | 5.87 | 7.73 | 5.03 |  |
| CC(C)C[C@H]1[C@@H](OCc2ccccc2)COS(=O)N1[C@H](C)c1ccccc1 (stereo partly specified) | 35.9 | 26 | 32.1 |  |
| C[C@@H]1CCC2[C@@H](C)[C@@H](OCCO[C@H]3OC4O[C@@]5(C)CCC6[C@H](C)CCC([C@H]3C)[C@@]46OO5)OC3O[C@@]4(C)CCC1[C@]32OO4 (stereo partly specified) |  |  | > 100 |  |
| CC(C)(C)c1cc(C(=O)/C=C/C=C/c2ccccc2)cc(C(C)(C)C)c1O | > 100 | > 94.1 | 15.1 |  |
| CC(C)(C)c1cc(C(CO)OCCOCCO)cc(C(C)(C)C)c1O (stereo unspecified) | > 100 | > 100 | > 100 |  |
| S=c1[nH]n2c(COc3cccc(OCc4nnc5sc(=S)[nH]n45)c3)nnc2s1 | > 100 | > 100 | > 100 |  |
| O=C(NS(=O)(=O)OCC(Cl)(Cl)Cl)SCCC(F)(F)C(F)(F)C(F)(F)C(F)(F)C(F)(F)C(F)(F)F | > 100 | 48.3 | 44.6 |  |
